# Results: patent US12497396B2, “Nitrogen-containing heterocyclic derivatives, method therefor and application therefor as inhibitors of KRAS G12C for the treatment of cancers” (SHANGHAI HANSOH BIOMEDICAL CO., LTD., priority 2019, dated 2025)
# How the values were obtained:
# CYP1A2 = biological target: T1, CYP1A2 (Homo sapiens, UniProt P05177); experiment: CYP enzyme single point inhibition, human liver microsomes, 1A2; format: in vitro ADME; conditions: single point method
# T1 construct: from tissue; host or cells: human liver microsomes
# T1 sequence (P05177 1-516): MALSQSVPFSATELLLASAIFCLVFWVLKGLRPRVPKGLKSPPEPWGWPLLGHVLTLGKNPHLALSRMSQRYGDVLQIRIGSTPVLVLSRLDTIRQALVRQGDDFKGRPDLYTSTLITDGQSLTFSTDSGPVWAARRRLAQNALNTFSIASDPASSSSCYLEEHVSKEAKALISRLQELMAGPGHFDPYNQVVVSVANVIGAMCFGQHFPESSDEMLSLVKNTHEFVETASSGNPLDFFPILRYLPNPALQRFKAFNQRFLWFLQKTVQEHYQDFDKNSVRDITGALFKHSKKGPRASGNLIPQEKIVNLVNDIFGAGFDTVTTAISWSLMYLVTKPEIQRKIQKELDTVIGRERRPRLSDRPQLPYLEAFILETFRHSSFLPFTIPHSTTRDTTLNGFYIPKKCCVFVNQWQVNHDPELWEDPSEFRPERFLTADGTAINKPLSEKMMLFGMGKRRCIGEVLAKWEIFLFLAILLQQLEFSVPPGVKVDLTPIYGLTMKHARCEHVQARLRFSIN
# Method: Using human liver microsomal incubation system, the inhibition of CYP450 enzyme subtypes by compounds was rapidly predicted by single point method. 2.5 mM NADPH: 100 mM phosphate buffer was added to 4.165 mg of NADPH (reduced nicotinamide adenine dinucleotide phosphate) to 2 mL. 0.25 mg/mL microsome: 4 mL of 100 mM phosphate buffer was added to 50 μL of 20 mg/mL microsome and mixed well. The embodiment compound to be tested was weighed and diluted to 10 mM with DMSO and then diluted to 100 μM with 100 mM phosphate buffer. • 1. In a 96-well plate, 40 μL of liver microsomes, 10 μL of substrate, 10 μL of compound to be tested were pre-incubated for 3 min. • 2. 40 μL of NADPH was added. • 3. 300 μL of acetonitrile termination solution containing internal standard was added at 20 min. • 4. Centrifugal injection.
# CYP2C9 = biological target: T2, CYP2C9 (Homo sapiens, UniProt P11712); experiment: CYP enzyme single point inhibition, human liver microsomes, 2C9; format: in vitro ADME; conditions: single point method
# T2 construct: from tissue; host or cells: human liver microsomes
# Method: Using human liver microsomal incubation system, the inhibition of CYP450 enzyme subtypes by compounds was rapidly predicted by single point method.
# 2.5 mM NADPH: 100 mM phosphate buffer was added to 4.165 mg of NADPH (reduced nicotinamide adenine dinucleotide phosphate) to 2 mL. 0.25 mg/mL microsome: 4 mL of 100 mM phosphate buffer was added to 50 μL of 20 mg/mL microsome and mixed well.
# The embodiment compound to be tested was weighed and diluted to 10 mM with DMSO and then diluted to 100 μM with 100 mM phosphate buffer.
# • 1. In a 96-well plate, 40 μL of liver microsomes, 10 μL of substrate, 10 μL of compound to be tested were pre-incubated for 3 min. • 2. 40 μL of NADPH was added. • 3. 300 μL of acetonitrile termination solution containing internal standard was added at 20 min. • 4. Centrifugal injection.
# in vivo = conditions: male, Balb/c, mouse, po, 10 mg/kg
# Method: 5 g of Hydroxyethyl cellulose (HEC, CMC-Na, viscosity: 800-1200 Cps) was weighed, dissolved in 1000 mL of purified water, and 10 g of Tween 80 was added. The mixture was mixed well to form a clear solution.
# The embodiment compounds were weighed and added into 4-mL glass bottles, respectively, 2.4 mL of the solution was added, and ultrasound was performed for 10 minutes to obtain a colorless clear solution with a concentration of 1 mg/mL.
# Balb/C mice, males; PO, after overnight fasting, respectively, at a dose of 10 mg/kg, administered in a volume of 10 mL/kg.
# Blood samples were collected before administration and 0.083 h, 0.25 h, 0.5 h, 1 h, 2 h, 4 h, 6 h and 8 h after administration, the blood was placed in EDTA-2K tube, centrifuged at 4° C. 6000 rpm for 6 min to separate plasma, and stored at −80° C.; food was consumed 4 hours after drug administration.
# [1] = Pharmacokinetics in MiaPaca 2 tumor-bearing mice (plasma, tumor); format: in vivo; conditions: female, mouse, po, 6 mg/kg p.o.
# Method: The pharmacokinetic behavior of embodiment compound 165 and AMG-510 compound, administered orally at a dose of 6 mg/kg, in mice (plasma, tumor tissue and intestine) was studied using MiaPaca 2 tumor-bearing mice as test animals.
# 24 MiaPaca 2 tumor-bearing mice, females. 3 for each time point (0 h, 1 h, 2 h, 4 h, 6 h, 8 h, 16 h, 24 h). Shanghai xipuer-bikai Laboratory Animal Co., Ltd, Animal Production License No. (SCXK (Shanghai) 2018-0006.
# Embodiment compound 165-1 and compound AMG-510 were weighed and dissolved in the solution, the mixture was shaken well, and ultrasound was performed for 15 minutes to obtain a uniform suspension with a concentration of 0.6 mg/mL.
# MiaPaca 2 tumor-bearing mice were administered at a dose of 6 mg/kg in a volume of 10 mL/kg, respectively, based on body weight p.o. after fasting (animals were not administered at point 0 h).
# Before and after administration, mice were sacrificed with CO2, 0.5 mL blood was collected from the heart and placed in EDTA-2K tube, centrifuged at 4° C. […] The duodenum, ileum and colon tissues were cut with scissors, the contents were removed and cleaned twice with PBS, after absorbing water with absorbent paper, they were weighed, placed in a 2 mL centrifuge tube and stored at −80° C.
# T2 sequence (P11712 whole entry): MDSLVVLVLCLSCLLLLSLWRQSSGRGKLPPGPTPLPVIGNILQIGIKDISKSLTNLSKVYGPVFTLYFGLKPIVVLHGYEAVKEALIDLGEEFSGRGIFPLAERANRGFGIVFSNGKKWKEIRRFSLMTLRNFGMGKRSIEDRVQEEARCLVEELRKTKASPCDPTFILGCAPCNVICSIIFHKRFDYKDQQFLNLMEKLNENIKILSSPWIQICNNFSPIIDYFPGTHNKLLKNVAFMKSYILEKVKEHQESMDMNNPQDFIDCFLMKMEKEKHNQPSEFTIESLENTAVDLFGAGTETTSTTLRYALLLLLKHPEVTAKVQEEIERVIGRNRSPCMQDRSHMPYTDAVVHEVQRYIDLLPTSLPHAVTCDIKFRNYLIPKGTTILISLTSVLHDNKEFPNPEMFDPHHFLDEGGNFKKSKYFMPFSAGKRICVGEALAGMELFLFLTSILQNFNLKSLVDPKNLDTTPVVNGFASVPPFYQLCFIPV
Structure (SMILES),IC50 (CYP1A2) [nM],IC50 (CYP2C9) [nM],AUC(0-inf) (in vivo) [ng·h/mL],Cmax (in vivo) [ng/mL],MRT (in vivo) [min],Tmax (in vivo) [min],half-life (in vivo) [min],"Kp ([1]; exposure in tumor to exposure in plasma, read-out: Ratio (T/P))","MRT ([1]; plasma, read-out: MRT (hr) Plasma) [h]","half-life ([1]; plasma, read-out: T1/2 (hr) Plasma (converted)) [h]","MRT ([1]; tumor, read-out: MRT (hr) Tumor) [h]","half-life ([1]; tumor, read-out: T1/2 (hr) Tumor (converted)) [h]"
"C=CC(=O)N1C[C@H](C)N(c2nc(=O)n(-c3c(SC)ccnc3C(C)C)c3nc(-c4c(O)cccc4F)c(F)cc23)C[C@H]1C (single isomer, unassigned) [Embodiment 114-1]",> 100,84.6,1370,1820,42,15,36,–,–,–,–,–
"C=CC(=O)N1C[C@H](C)N(c2nc(=O)n(-c3c(SC)ccnc3C(C)C)c3nc(-c4c(N)ccc(Cl)c4F)c(Cl)cc23)C[C@H]1C (single isomer, unassigned) [Embodiment 165-1]",66.7,58.8,347,264,90,15,60,0.57,0.9,0.5,1.5,0.9
